# Measured values as given in patent US6943181B2, “Use of substituted gamma-lactone compounds as pharmaceutical preparations” (Grunenthal GmbH, priority 2001, dated 2005).
# Target: T1, nitrogen monoxide synthase (NO synthase) (Rattus norvegicus, UniProt P29476)
# T1 construct: the supernatant was then decanted off and frozen in portions; from tissue; host or cells: rat cerebellum (homogenate, 20,000 g supernatant)
# Test: HTS-NOS assay (nitrogen monoxide synthase assay)
# Assay type: biochemical
# Conditions: compound at 10 μM; enzyme preparation from rat cerebella; [3H]-arginine substrate
# Source text: This assay makes it possible to determine the percentage inhibition of NO synthase by a compound of the general formula I used according to the invention by measuring NOS activity on exposure to the compound. NO synthase is here mixed under suitable conditions together with radioactively labelled arginine and the particular compound of the general formula I. After termination of the NO formation reaction at a predetermined time, the quantity of unconverted arginine is directly or indirectly determined. […] This assay may be carried out at follows: • (a) Incubation of the NO synthase with labelled arginine as the substrate in a reaction vessel, • (b) Separation of the labelled arginine from the labelled citrulline optionally arising as a product of the enzymatic reaction at a time at which the concentration of citrulline is rising, • (c) Measurement of the quantity of arginine separated in each case.
# Separation is performed by means of a filter plate membrane.
# Radioactive arginine is used as the substrate in this HTS-NOS assay. Depending on the type of microtitre plate (MTP), the assay volume may be selected in the range between 25 μl and 250 μl. Depending on the enzyme source used, cofactors and coenzymes are added. The batches are incubated in this microtitre plate (assay MTP) according to step (a) at room temperature and, depending on the enzyme activity used (units), lasts between 5 and 60 minutes. On completion of incubation (step (a)), the plate is placed in a cell harvester, which is equipped with an MTP which has a cation exchange membrane as a filter bottom (filter MTP). All the batches from the assay MTP are transferred into this filter MTP and suction filtered through a cation exchange filter plate, a paper filter loaded with phosphate groups. The filter MTP is then washed with buffer or water. This procedure binds the remaining substrate arginine onto the cation exchanger, while the enzymatically formed radioactive citrulline is quantitatively eluted. Once the filter MTP has been dried and scintillation liquid added, the bound arginine can be counted in the scintillation counter. Low radioactivity indicates an uninhibited NOS reaction. An inhibited enzyme reaction means that the radioactive arginine has not been converted. This means that there is a high level of radioactivity on the filter.
# • Arginine, L-[2,3,4-^3H]-monohydrochloride; item no. […] The pH value of the buffer was adjusted to 7.4 at 25° C. • Washing medium: H2O Enzyme Preparation
# Rat cerebella were used as the starting tissue. The animals were stunned and killed, the brain tissue, the cerebellum, was dissected out, 1 ml of enzyme preparation buffer (4° C.) was added per cerebellum, and the tissue was disrupted for 1 min at 6000 rpm in a Polytron homogeniser. The mixture was then centrifuged at 4° C. for 15 min at 20,000 g, and the supernatant was then decanted off and frozen in portions at −80° C. (discarding the precipitate).
# 96-Well MTPs with a well capacity of ≦250 μl were used Pipetting sequence: see table 1:
# Once the pipetting operation was complete, a lid was laid on top of this MTP (assay MTP). Incubation at 25° C. (room temperature (RT)) for 5-60 min, depending on the quantity and activity of the enzyme used.
# The contents of the assay MTP were then transferred with the assistance of a 96 well cell harvester into a 96 well cation exchange MTP (filter MTP) and suction filtered. A single washing with […] of H2O (from a trough) was then performed.
# The plate was then dried for 1 h at 60° C. in a drying cabinet. The bottom of the filter MTP was then carefully sealed from beneath with a “back seal”. 35 μl of scintillating material were then pipetted into each well. The top of the plate was also sealed with a “top seal”. After 1 hour's waiting time, the plate was assessed on the β-counter.
row,SMILES,inhibition at 10 µM
1,"COc1ccc(OC)c(C2(C)CC(Nc3n[nH]cc3C#N)C(=O)O2)c1 (stereo not drawn) [Example 64, 3-[5-(2,5-Dimethoxy-phenyl)-5-methyl-2-oxo-tetrahydro-furan-3-ylamino]-1H-pyrazole-4-carbonitrile]",42%
2,"COc1ccc(OC)c(C2(C)CC(Nc3n[nH]c(SC)c3C#N)C(=O)O2)c1 (stereo not drawn) [Example 65, 3-[5-(2,5-Dimethoxy-phenyl)-5-methyl-2-oxo-tetrahydro-furan-3-ylamino]-5-methylsulfanyl-1H-pyrazole-4-carbonitrile]",42%
3,"COc1ccccc1C1(C)CC(Nc2ccccn2)C(=O)O1 (stereo not drawn) [Example 67, 5-(2-Methoxy-phenyl)-5-methyl-3-(pyridin-2-ylamino)-dihydro-furan-2-one]",45%
4,"COc1cc(OC)cc(C2(C)CC(Nc3ncc(C(F)(F)F)cc3Cl)C(=O)O2)c1 (stereo not drawn) [Example 68, 3-(3-Chloro-5-trifluoromethyl-pyridin-2-ylamino)-5-(3,5-dimethoxy-phenyl)-5-methyl-dihydro-furan-2-one]",60%
5,"COc1ccc(OC)c(C2(C)CC(Nc3ncc(C(F)(F)F)cc3Cl)C(=O)O2)c1 (stereo not drawn) [Example 69, 3-(3-Chloro-5-trifluoromethyl-pyridin-2-ylamino)-5-(2,5-dimethoxy-phenyl)-5-methyl-dihydro-furan-2-one]",58%
6,"COc1ccccc1C1(C)CC(Nc2ncc(Cl)cc2Cl)C(=O)O1 (stereo not drawn) [Example 70, 3-(3,5-Dichloro-pyridin-2-ylamino)-5-(2-methoxy-phenyl)-5-methyl-dihydro-furan-2-one]",51%
7,"COc1ccc(C2(C)CC(Nc3ncc(C(F)(F)F)cc3Cl)C(=O)O2)c(OC)c1 (stereo not drawn) [Example 71, 3-(3-Chloro-5-trifluoromethyl-pyridin-2-ylamino)-5-(2,4-dimethoxy-phenyl)-5-methyl-dihydro-furan-2-one]",54%
8,"COc1ccc(C2(C)CC(Nc3cc(C)cc(C)n3)C(=O)O2)cc1OC (stereo not drawn) [Example 74, 5-(3,4-Dimethoxy-phenyl)-3-(4,6-dimethyl-pyridin-2-ylamino)-5-methyl-dihydro-furan-2-one]",51%

# Further lines, results first:
row,inhibition at 10 µM,SMILES
1,52%,"COc1ccc(OC)c(C2(C)CC(Nc3ccccn3)C(=O)O2)c1 (stereo not drawn) [Example 66, 5-(2,5-Dimethoxy-phenyl)-5-methyl-3-(pyridin-2-ylamino)-dihydro-furan-2-one]"
2,40%,"COc1cccc(C2(C)CC(Nc3cc(C)cc(C)n3)C(=O)O2)c1 (stereo not drawn) [Example 72, 3-(4,6-Dimethyl-pyridin-2-ylamino)-5-(3-methoxy-phenyl)-5-methyl-dihydro-furan-2-one]"
3,56%,"COc1ccc(C2(C)CC(Nc3cc(C)cc(C)n3)C(=O)O2)cc1 (stereo not drawn) [Example 73, 3-(4,6-Dimethyl-pyridin-2-ylamino)-5-(4-methoxy-phenyl)-5-methyl-dihydro-furan-2-one]"
4,48%,"COc1ccc(C2(C)CC(Nc3cc(C)ccn3)C(=O)O2)cc1 (stereo not drawn) [Example 75, 5-(4-Methoxy-phenyl)-5-methyl-3-(4-methyl-pyridin-2-ylamino)-dihydro-furan-2-one]"
